Measurements published in the NIST ThermoML archive (doi:10.1016/j.tca.2014.10.015).
Values joined by “and” are separate entries in the source; they are usually repeats but may differ in a detail not shown here. Identical values can stand only once. Numbers after ± are expanded uncertainties.

Settings: Liquid; for mass density: 293 K, 101.33 kPa, Pycnometric method; for vapor or sublimation pressure: Transpiration method

CCCCCCCCCCN=[N+]=[N-] [1-decyl azide]
Settings	mass density [kg/m3]	vapor or sublimation pressure [kPa]
–	870 ± 20	–
299.1 K	–	0.00431 ± 0.00024
304 K	–	0.00666 ± 0.00035
309 K	–	0.01017 ± 0.00053
314 K	–	0.01489 ± 0.00078
318.9 K	–	0.02152 ± 0.0011
324 K	–	0.03305 ± 0.0017
329 K	–	0.04744 ± 0.0025
333.9 K	–	0.06769 ± 0.0035
339 K	–	0.0914 ± 0.0048
344.1 K	–	0.1347 ± 0.0069

CCCCCCCCN=[N+]=[N-] [1-azidooctane]
Settings	mass density [kg/m3]	vapor or sublimation pressure
–	840 ± 20	–
276.2 K	–	0.00625 ± 0.00035 kPa
279.8 K	–	0.00904 ± 0.00048 kPa
282.5 K	–	0.01172 ± 0.00062 kPa
285.8 K	–	0.01548 ± 0.00082 kPa
289.4 K	–	0.02119 ± 0.0011 kPa
292.2 K	–	0.02751 ± 0.0014 kPa
293.2 K	–	0.02911 ± 0.0015 kPa
296.2 K	–	0.03707 ± 0.0019 kPa
300.2 K	–	0.04808 ± 0.0025 kPa
302.1 K	–	0.05805 ± 0.0031 kPa
303.1 K	–	0.06504 ± 0.0034 kPa
307 K	–	0.08345 ± 0.0044 kPa
310 K	–	0.1089 ± 0.0056 kPa
313.9 K	–	0.1355 ± 0.0071 kPa
317.9 K	–	0.188 ± 0.0099 kPa
320.9 K	–	0.2406 ± 0.012 kPa
321.8 K	–	0.2385 ± 0.012 kPa
323.9 K	–	0.2592 ± 0.014 kPa and 0.2683 ± 0.014 kPa
325.8 K	–	0.3237 ± 0.018 kPa and 0.3236 ± 0.018 kPa and 0.3135 ± 0.017 kPa
